Data on one molecule can be found in PubChem BioAssay AID2122 (Sanford-Burnham Center for Chemical Genomics, 2009).

“And” between values parts separate entries of the source, which are not always exact repeats. Equal entries are not always repeated.

This assay concerns MIN6 mouse insulinoma cells, cytotoxicity counterscreen. Put plainly: MIN6 cell viability loss – mouse insulinoma, cytotoxicity control, dose response (AID 2122).

By IC50 is commonly meant the point on the concentration scale where inhibition reaches its midpoint. As to `CN(C)c1ccnc2c[cH-]cc12.[Fe].c1ccc(-[c-]2[c-](-c3ccccc3)[c-](-c3ccccc3)[c-](-c3ccccc3)[c-]2-c2ccccc2)cc1` (stereo unspecified), the IC50 was 4.89 µM and 2.24 µM.
